Measurements from patent US11046686B2, “Thiadiazole IRAK4 compounds” (Gilead Sciences, Inc., priority 2018, dated 2021).
pEC50, pIC50: −log10 of the molar value. Where two headings read alike, the source gives them in different places.

Key:
[1] = system: TNFα; test: IRAK4 Monocyte TNFα Cell Based Assay; design: species or system human
Summary of the method: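 Human monocytes (5,000/well) pretreated with compound 1 h at 37 °C (0.1% DMSO final), then stimulated with 50 pg/ml LPS for 4 h. Secreted TNFα measured by TR-FRET two-antibody detection after overnight incubation at room temperature; % control relative to unstimulated and LPS-stimulated wells.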

[2] = molecular target: IRAK4 enzyme (Homo sapiens (Human), UniProt Q9NWZ3); test: IRAK4 Biochemical Assay (TR-FRET, STK1 KinEASE)
Sequence of IRAK4 enzyme (Q9NWZ3 whole entry): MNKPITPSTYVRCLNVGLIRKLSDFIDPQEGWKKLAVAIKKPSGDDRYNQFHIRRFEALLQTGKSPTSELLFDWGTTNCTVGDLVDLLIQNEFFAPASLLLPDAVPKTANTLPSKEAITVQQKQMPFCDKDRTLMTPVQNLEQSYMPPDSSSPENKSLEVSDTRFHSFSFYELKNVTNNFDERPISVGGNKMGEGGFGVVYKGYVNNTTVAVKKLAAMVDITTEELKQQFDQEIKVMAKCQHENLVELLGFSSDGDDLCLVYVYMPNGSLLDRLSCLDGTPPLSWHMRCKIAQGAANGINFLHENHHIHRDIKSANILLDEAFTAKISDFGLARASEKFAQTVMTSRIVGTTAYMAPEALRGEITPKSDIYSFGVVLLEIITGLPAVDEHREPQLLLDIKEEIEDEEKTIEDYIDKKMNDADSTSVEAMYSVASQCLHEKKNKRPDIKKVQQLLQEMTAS
Experimental: IRAK4 enzyme (Carna Biosciences, Chuo-ku, Kobe, Japan) activity was measured by detecting phosphorylated peptide substrate formation using an antibody against the phosphorylated peptide substrate. This is a time-resolved fluorescence resonance energy transfer (TR-FRET) immunoassay, based on the STK1 KinEASE Assay (Cisbio, Bedford, Mass.). The assay was designed as a simple two-step, endpoint assay (a 5 μl enzyme reaction followed by 5 μl stop and detect Solution) performed in ProxiPlate-384 Plus plates (Perkin Elmer, Waltham, Mass.). […] Compounds diluted in DMSO were spotted into 384 well plates using a Labcyte® Echo 550 Liquid Handling System prior to addition of IRAK4 enzyme and peptide substrate. Reaction solutions were delivered using a Multi-Flo (Bio-Tek Instruments). The enzyme and peptide solution was incubated with compound for 15 minutes at room temp before the reaction was initiated by the addition of ATP. The standard 5 μl reaction mixture contained 500 μM ATP, […] peptide (STK1 Peptide), 0.75 nM of IRAK4 in reaction buffer (50 mM HEPES, pH 7.0, 0.02% NaN3, 0.01% BSA, 0.1 mM Orthovanadate, 5 mM […], 0.025% NP-40, 1 mM DTT). After 120 min of incubation at room temperature, 5 μl of Stop and Detect Solution (1:100 Cryptate labeled anti-phosphorylated peptide antibody solution and 125 nM Tracer in a 50 mM HEPES pH 7.0 detection buffer containing sufficient EDTA) was added. The plate was then further incubated for 60 minutes at room temperature and read on Envision 2103 Multilabeled reader (PerkinElmer) with excitation/emission/FRET emission at 340 nm/615 nm665 nm, respectively. Fluorescence intensities at 615 nm and 665 nm emission wavelengths were expressed as aratio (665 nm/615 nm). Percentage of inhibition was calculated as below: % Inhibition=100×(Ratiosample−Ratio0% Inhibition)/(Ratio100% Inhibition−Ratio0% Inhibition)
The 0% inhibition value comes from control wells lacking inhibitor.

[3] = Homo sapiens, Monocyte, human monocytes, LPS stimulated, compounds 1-32, read-out: EC50 TNF
[4] = compounds 1-32, read-out: IC50 HTRF

Structure (SMILES) | pEC50 [1, 3] | pIC50 [2, 4] | also measured
CC(C)Nc1cc(-c2ccc3cc(C#N)cnn23)ncc1-c1nnc(N2C3CC2CN(C(=O)N2CCN(C)CC2)C3)s1 [Compound 277, 7-(4-(isopropylamino)-5-(5-(3-(4-methylpiperazine-1-carbonyl)-3,6-diazabicyclo[3.1.1]heptan-6-yl)-1,3,4-thiadiazol-2-yl)pyridin-2-yl)pyrrolo[1,2-b]pyridazine-3-carbonitrile] |  |  | pEC50 ([1]; Homo sapiens, Monocyte, read-out: EC50 MONO TNF HTRF): 7.95; pIC50 [2]: 9.03
CC(=O)NC12CCC(c3nnc(-c4cnc(-c5ccc6cc(C#N)cnn56)cc4NC(C)C)s3)(CC1)CC2 [Compound 280, N-(4-(5-(6-(3-cyanopyrrolo[1,2-b]pyridazin-7-yl)-4-(isopropylamino)pyridin-3-yl)-1,3,4-thiadiazol-2-yl)bicyclo[2.2.2]octan-1-yl)acetamide] |  |  | pEC50 ([1]; Homo sapiens, Monocyte, human monocytes, second part of Table 2, compounds 33-343, unit inferred, read-out: EC50 MONO TNF HTRF): 8.13; pIC50 [2]: 8.99
CNC(=O)[C@@H]1CCCN1c1nnc(-c2cnc(-c3ccc4cc(C#N)cnn34)cc2NC2COC2)s1 [Compound 332] |  |  | pEC50 ([1]; human monocytes, second part of Table 2, compounds 33-343, unit inferred, read-out: EC50 MONO TNF HTRF): 6.36; pIC50 ([2]; second part of Table 2, compounds 33-343, unit inferred, read-out: IC50 IRAK4-HTBS): 8.79
CC(C)Nc1cc(-c2ccc3cc(C#N)cnn23)ncc1-c1nnc(CCNC(=O)OC(C)(C)C)s1 [Example 1, tert-butyl (2-(5-(6-(3-cyanopyrrolo[1,2-b]pyridazin-7-yl)-4-(isopropylamino)pyridin-3-yl)-1,3,4-thiadiazol-2-yl)ethyl)carbamate] | 6.51 | 8.82 | 
CC(=O)N[C@H]1CC[C@H](c2nnc(-c3cnc(-c4ccc5cc(C#N)cnn45)cc3N[C@H]3CC[C@H](c4nnc(C(F)F)o4)CC3)s2)CC1 [Example 2, N-((1R,4r)-4-(5-(6-(3-cyanopyrrolo[1,2-b]pyridazin-7-yl)-4-(((1r,4R)-4-(5-(difluoromethyl)-1,3,4-oxadiazol-2-yl)cyclohexyl)amino)pyridin-3-yl)-1,3,4-thiadiazol-2-yl)cyclohexyl)acetamide] | 8.10 | 9.00 | 
CC(=O)N[C@H]1CC[C@H](c2nnc(-c3cnc(-c4ccc5cc(C#N)cnn45)cc3NC3(C)COC3)s2)CC1 [Example 3, N-((1r,4r)-4-(5-(6-(3-cyanopyrrolo[1,2-b]pyridazin-7-yl)-4-((3-methyloxetan-3-yl)amino)pyridin-3-yl)-1,3,4-thiadiazol-2-yl)cyclohexyl)acetamide] | 7.82 | > 9.00 | 
CC(C)Nc1cc(-c2ccc3cc(C#N)cnn23)ncc1-c1nnc(N2CCC3(CC2)COC3)s1 [Example 4, 7-(5-(5-(2-oxa-7-azaspiro[3.5]nonan-7-yl)-1,3,4-thiadiazol-2-yl)-4-(isopropylamino)pyridin-2-yl)pyrrolo[1,2-b]pyridazine-3-carbonitrile] | 7.64 | 9.00 | 
CC(C)Nc1cc(-c2ccc3cc(C#N)cnn23)ncc1-c1nnc(CO)s1 [Example 5, 7-(5-(5-(hydroxymethyl)-1,3,4-thiadiazol-2-yl)-4-(isopropylamino)pyridin-2-yl)pyrrolo[1,2-b]pyridazine-3-carbonitrile] | 7.12 | 9.00 | 
CC(=O)NC1CCN(c2nnc(-c3cnc(-c4ccc5cc(C#N)cnn45)cc3NC(C)C)s2)CC1 [Example 6, N-(1-(5-(6-(3-cyanopyrrolo[1,2-b]pyridazin-7-yl)-4-(isopropylamino)pyridin-3-yl)-1,3,4-thiadiazol-2-yl)piperidin-4-yl)acetamide] | 7.72 | > 9.00 | 
CC(C)Nc1cc(-c2ccc3cc(C#N)cnn23)ncc1-c1nnc(-c2ccc(N)cc2)s1 [Example 7, 7-(5-(5-(4-aminophenyl)-1,3,4-thiadiazol-2-yl)-4-(isopropylamino)pyridin-2-yl)pyrrolo[1,2-b]pyridazine-3-carbonitrile] | < 5.00 | 8.05 | 
CC(=O)N1CCN(C(=O)c2nnc(-c3cnc(-c4ccc5cc(C#N)cnn45)cc3NC(C)C)s2)CC1 [Example 10, 7-(5-(5-(4-acetylpiperazine-1-carbonyl)-1,3,4-thiadiazol-2-yl)-4-(isopropylamino)pyridin-2-yl)pyrrolo[1,2-b]pyridazine-3-carbonitrile] | 6.80 | > 9.00 | 
CC(C)Nc1cc(-c2ccc3cc(C#N)cnn23)ncc1-c1nnc(C(=O)NCCCN2CCCCC2)s1 [Example 11, 5-(6-(3-cyanopyrrolo[1,2-b]pyridazin-7-yl)-4-(isopropylamino)pyridin-3-yl)-N-(3-(piperidin-1-yl)propyl)-1,3,4-thiadiazole-2-carboxamide] | 5.93 | > 9.00 | 
CC(=O)N[C@H]1CCN(C(=O)c2nnc(-c3cnc(-c4ccc5cc(C#N)cnn45)cc3NC(C)C)s2)C1 [Example 12, (S)-N-(1-(5-(6-(3-cyanopyrrolo[1,2-b]pyridazin-7-yl)-4-(isopropylamino)pyridin-3-yl)-1,3,4-thiadiazole-2-carbonyl)pyrrolidin-3-yl)acetamide] | 8.05 | > 9.00 | 
CC(=O)N[C@@H]1CCN(C(=O)c2nnc(-c3cnc(-c4ccc5cc(C#N)cnn45)cc3NC(C)C)s2)C1 [Example 13, (R)-N-(1-(5-(6-(3-cyanopyrrolo[1,2-b]pyridazin-7-yl)-4-(isopropylamino)pyridin-3-yl)-1,3,4-thiadiazole-2-carbonyl)pyrrolidin-3-yl)acetamide] | 7.64 | > 9.00 | 
CC(C)Nc1cc(-c2ccc3cc(C#N)cnn23)ncc1-c1nnc(C(=O)NC[C@@H](F)C(C)(C)O)s1 [Example 14, (R)-5-(6-(3-cyanopyrrolo[1,2-b]pyridazin-7-yl)-4-(isopropylamino)pyridin-3-yl)-N-(2-fluoro-3-hydroxy-3-methylbutyl)-1,3,4-thiadiazole-2-carboxamide] | 7.10 | > 9.00 | 
CNC(=O)c1nnc(-c2cnc(-c3ccc4cc(C#N)cnn34)cc2NC(C)C)s1 [Example 15, 5-(6-(3-cyanopyrrolo[1,2-b]pyridazin-7-yl)-4-(isopropylamino)pyridin-3-yl)-N-methyl-1,3,4-thiadiazole-2-carboxamide] | 5.47 | > 9.00 | 
CC(C)Nc1cc(-c2ccc3cc(C#N)cnn23)ncc1-c1nnc(C(=O)N2CC[C@H](O)C2)s1 [Example 16, (S)-7-(5-(5-(3-hydroxypyrrolidine-1-carbonyl)-1,3,4-thiadiazol-2-yl)-4-(isopropylamino)pyridin-2-yl)pyrrolo[1,2-b]pyridazine-3-carbonitrile] | 7.46 | > 9.00 | 
CC(C)Nc1cc(-c2ccc3cc(C#N)cnn23)ncc1-c1nnc(C(=O)N2CC[C@@H](O)C2)s1 [Example 17, (R)-7-(5-(5-(3-hydroxypyrrolidine-1-carbonyl)-1,3,4-thiadiazol-2-yl)-4-(isopropylamino)pyridin-2-yl)pyrrolo[1,2-b]pyridazine-3-carbonitrile] | 7.26 | 9.00 | 
CC(C)Nc1cc(-c2ccc3cc(C#N)cnn23)ncc1-c1nnc(C(=O)N2CCOCC2)s1 [Example 18, 7-(4-(isopropylamino)-5-(5-(morpholine-4-carbonyl)-1,3,4-thiadiazol-2-yl)pyridin-2-yl)pyrrolo[1,2-b]pyridazine-3-carbonitrile] | < 5.00 | 6.00 | 
CC(=O)Nc1nnc(-c2cnc(-c3ccc4cc(C#N)cnn34)cc2NC(C)C)s1 [Example 19, N-(5-(6-(3-cyanopyrrolo[1,2-b]pyridazin-7-yl)-4-(isopropylamino)pyridin-3-yl)-1,3,4-thiadiazol-2-yl)acetamide] | 5.23 | 9.00 | 
CC(=O)N[C@H]1CC[C@H](c2nnc(-c3cnc(-c4ccc5cc(C#N)cnn45)cc3NCC#N)s2)CC1 [Example 20, N-((1r,4r)-4-(5-(4-((cyanomethyl)amino)-6-(3-cyanopyrrolo[1,2-b]pyridazin-7-yl)pyridin-3-yl)-1,3,4-thiadiazol-2-yl)cyclohexyl)acetamide] | 8.22 | > 9.00 | 
CC(=O)N[C@H]1CC[C@H](c2nnc(-c3cnc(-c4ccc5cc(C#N)cnn45)cc3NC3COC3)s2)CC1 [Example 21, N-((1r,4r)-4-(5-(6-(3-cyanopyrrolo[1,2-b]pyridazin-7-yl)-4-(oxetan-3-ylamino)pyridin-3-yl)-1,3,4-thiadiazol-2-yl)cyclohexyl)acetamide] | 8.00 | > 9.00 | 
